One compound from patent publication US10647690B2, “2,3-epoxy succinyl derivative, preparation method and use thereof” (Institute of Pharmacology and Toxicology Academy of …, priority 2016, dated 2020) can be followed below.

SMILES strings stand for the structures. Like-named read-outs stand apart in the source and are kept apart here.

Common to all, as to type: biochemical
Experiment [1] concerns the target T1, Cathepsin K (Homo sapiens, UniProt P43235).
T1 construct: purchased Biovision K150-100
T1 sequence (P43235 115-329): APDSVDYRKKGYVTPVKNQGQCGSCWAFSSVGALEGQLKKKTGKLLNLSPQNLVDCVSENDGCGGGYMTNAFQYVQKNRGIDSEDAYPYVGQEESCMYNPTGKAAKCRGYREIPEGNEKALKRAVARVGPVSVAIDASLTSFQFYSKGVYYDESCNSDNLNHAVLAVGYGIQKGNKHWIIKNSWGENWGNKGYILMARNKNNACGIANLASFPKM
The experiment can be described thus: Preliminary screening of Cathepsin K (Cathepsin K Inhibitor Screening Kit K150-100, Biovision). As to conditions: relative inhibition rate vs 10 μM FF-FMK control. The procedure:
1. Method for preliminary screening of Cathepsin K:
Preliminary screening of Cathepsin K was performed by using Cathepsin K Inhibitor Screening Kit (Product No. K150-100) from Biovision Company.
1.1.1 Preparation of Cathepsin K enzyme solution: Cathepsin K enzyme (40 μl) and Cathepsin K reagent (80 μl) were added to Cathepsin K buffer (3.88 ml), and were mixed well, to prepare Cathepsin K enzyme solution with a volume of 4 ml, which was placed on ice for further use.
1.1.2 Preparation of a compound solution: different compounds were separately weighed and dissolved in DMSO (methyl sulfoxide), to prepare solutions at a concentration of 30 mM as stock solutions, and for some insoluble compounds, they were prepared into solutions at a concentration of 10 mM as stock solutions; the 30 mM and 10 mM compound stock solutions were diluted to 1 mM and 100 μM DMSO solutions, respectively; 1 mM and 100 μM compound DMSO solutions (2 μl) were separately added to CTSK buffer (18 μl), to prepare compound solutions at a final concentration of 100 μM and 10 μM, respectively, wherein the concentration of DMSO was 10%.
1.1.3 Preparation of Cathepsin K substrate solution: Cathepsin K substrate (160 μl) was added to Cathepsin K buffer (3.44 ml), and mixed homogeneously, to prepare Cathepsin K substrate solution with a volume of 3.6 ml, which was placed on ice for further use.
1.2 Method for screening Cathepsin K inhibitor: Cathepsin K enzyme solution (prepared in Item 1.1.1) was added to a 384-well plate (ProxiPlate-384 Plus, Perkinelmer) at 10 μl/well, and centrifuged at 1000 rpm for 1 min; the compound solution (prepared in Item 1.1.2) was then added at 2 µl/well, and centrifuged at 1000 rpm for 1 min, and every concentration was repeated in two wells; the plate was placed in a 25° C. incubator for 15 min; Cathepsin K substrate solution was then added at 8 μl/well, and centrifuged at 1000 rpm for 1 min; and finally, the fluorescence signal was read in Enspire, wherein the exciting light was at a wavelength of 400 nm, the emitting light was at a wavelength of 505 nm, and continuous reading was performed at 37° C. for 120 min.
1.3 Data analysis: the slope (S) for all the samples was calculated by ΔRFU (RFU2−RFU1) and time ΔT (T2−T1), including negative control (Enzyme Control, EC) and positive control (Inhibitor Control, IC: 10 μM FF-FMK), and the calculation formula was as followed: Relative inhibition rate %=(SEC−SS)/(SEC−SIC)*100.

Experiment [2] has as its target T1, Cathepsin K. The experiment is described as follows: IC50 determination against Cathepsin K (Biovision kit K150-100). As to conditions: CTSK. As to the method: (§1) 2. Method for determining IC50 of compounds against cathepsin:
IC50 of compounds against Cathepsin K was determined by using Cathepsin K Inhibitor Screening Kit (Product No. K150-100) from Biovision Company;
2.1.1.1 Preparation of Cathepsin K solution: Cathepsin K enzyme (23 μl) and Cathepsin K reagent (46 μl) were added to Cathepsin K buffer (2231 μl), and mixed well, to prepare Cathepsin K enzyme solution with a volume of 2.3 ml, which was placed on ice for further use.
(§2) 2.1.2 Preparation of compound solutions: 30 mM and 10 mM compound stock solutions, and control compounds were gradiently diluted in DMSO at a ratio of 1:3, wherein the maximum dilution fold was 19683; the gradiently diluted compound solution (3 μl) was added to Cathepsin K, B, L, and S buffer (27 μl), respectively, and mixed well, wherein the control compounds (FF-FMK, F-F-FMK, FF-FMK and Z-FF-FMK) were at the concentrations of 66.67, 22.22, 7.41, 2.47, 0.82, 0.27, 0.091, 0.03, 0.01, 0.0034 and 0 μM, respectively, the test compounds were at the concentrations of 1000, 333.3, 111.1, 37, 12.3, 4.1, 1.4, 0.46, 0.15, 0.05 and 0 μM, respectively, and the final concentration of DMSO was 10%.
2.1.3.1 Cathepsin K: Cathepsin K substrate (90 μl) was added to Cathepsin K buffer (1710 μl), and mixed well, to prepare Cathepsin K substrate solution with a volume of 1.8 ml, which was placed on ice for further use.
(§3) Method for screening cathepsin inhibitors: the cathepsin solution (prepared in Item 2.1.1) was added to a 384-well plate (ProxiPlate-384 Plus, Perkinelmer) at 10 μl/well, and centrifuged at 1000 rpm for Imin; the compound solution (prepared in Item 2.1.2) was then added at 2 μl/well, and every concentration was repeated in two wells; the final concentrations of the test compounds were 100, 33.3, 11.1, 3.7, 1.23, 0.41, 0.14, 0.046, 0.015, 0.005 and 0 μM, respectively, wherein the final concentration of DMSO was 1%; after centrifugation at 1000 rpm for 1 min, the plate was put in a 25° C. incubator for 15 min; the cathepsin substrate solution was then added at 8 µl/well, and centrifuged at 1000 rpm for 1 min; and finally, the fluorescence signal was read in Enspire, wherein the exciting light was at a wavelength of 400 nm, the emitting light was at a wavelength of 505 nm, and continuous reading was performed at 37° C. for 120 min.
(§4) Data analysis: the slope (S) for all the samples was calculated by ΔRFU(RFU2−RFU1) and time ΔT(T2−T1), including negative control (Enzyme Control, EC) and positive control (Inhibitor Control, IC: 10 μM (FF-FMK, F-F-FMK, FF-FMK and Z-FF-FMK), and the calculation formula was as followed: Relative inhibition rate %=(SEC−SS)/(SEC−SIC)*100. The IC50 for each compound was obtained by means of fitting by software GraphPad Prism 5.0.

Experiment [3] concerns the target T2, Cathepsin S (Homo sapiens, UniProt P25774).
T2 construct: purchased Biovision K149-100
The experiment is described as follows: IC50 determination against Cathepsin S (Biovision kit K149-100). The following applies: CTSS. As to the method:
as §1
IC50 of compounds against Cathepsin S was determined by using Cathepsin S Inhibitor Screening Kit (Product No. K149-100) from Biovision Company.
2.1.1.4 Preparation of Cathepsin S solution: Cathepsin S enzyme (46 μl) was added to Cathepsin S buffer (2254 μl), and mixed well, to prepare Cathepsin S enzyme solution with a volume of 2.3 ml, which was placed on ice for further use.
as §2
2.1.3.4 Cathepsin S: Cathepsin S substrate (90 μl) was added to Cathepsin S buffer (1710 μl), and mixed well, to prepare Cathepsin S substrate solution with a volume of 1.8 ml, which was placed on ice for further use.
as §3, §4

[4] abbreviates: Exp-1, read-out: IC50 (nM) Exp-1.
Where [5] appears, read: Exp-2, read-out: IC50 (nM) Exp-2.
Setting [6] is: average of Exp-1 and Exp-2, read-out: Ave of IC50.

T2 sequence (P25774 115-331): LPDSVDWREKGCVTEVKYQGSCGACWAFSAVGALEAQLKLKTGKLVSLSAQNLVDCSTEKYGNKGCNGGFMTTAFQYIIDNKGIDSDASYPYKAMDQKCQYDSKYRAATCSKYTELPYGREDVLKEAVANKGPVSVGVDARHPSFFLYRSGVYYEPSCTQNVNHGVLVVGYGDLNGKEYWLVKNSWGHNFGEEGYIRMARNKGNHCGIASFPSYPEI

Take `CCCNC(=O)[C@H]1O[C@@H]1C(=O)N[C@H](C(=O)N1CCC[C@H]1C(=O)O)[C@@H](C)CC` [zxy-60, CA-074, reference compound]: the “Inhibition % (1 μM) replicate 1” value in experiment [1] (1 μM compound, replicate 1) worked out at 88.44%. Further, the “Inhibition % (1 μM) replicate 2” value in experiment [1] (1 μM compound, replicate 2) is 92.44%. For the same compound, the “Inhibition % (10 μM) replicate 1” value in experiment [1] (10 μM compound, replicate 1) was found to be 94.49%. Also, the “Inhibition % (10 μM) replicate 2” value in experiment [1] (10 μM compound, replicate 2) was 91.36%. For the same compound, the IC50 came to 252 nM in experiment [2] (setting [4]); 245 nM in experiment [2] (setting [5]); 248 nM in experiment [2] (setting [6]); 3510 nM in experiment [3] (setting [4]); 3230 nM in experiment [3] (setting [5]); 3370 nM in experiment [3] (setting [6]).
